Columns and labels:
Format in all cases: functional
Mus musculus [1] = species on record: Mus musculus; test: Compound was tested for antagonist activity against morphine sulfate by the mouse tail-flick method
Mus musculus [2] = species on record: Mus musculus; test: Analgesic activity in mice by the tail-flick method, activity expressed as ED50
Mus musculus [3] = species on record: Mus musculus; test: Analgesic activity in mice by the acetic acid writhing assay
Mus musculus [4] = species on record: Mus musculus; test: Analgesic activity in mice by the tail-flick method

SMILES	AD50 (Mus musculus [1]) [µM/kg]	ED50 (Mus musculus [2]) [µmol/kg]	ED50 (Mus musculus [3]) [µmol/kg]	ED50 (Mus musculus [4]) [µmol/kg]
Br.CCOC(=O)C1(c2cccc(O)c2)CCCN(C)C1 (configuration not stated)	24.4	> 290	5.66	
C=CCN1CCCC(C(=O)OCC)(c2cccc(O)c2)C1.O=P(O)(O)O (configuration not stated)	>92		7.22	> 229
C=CCN1CC[C@]23c4c5ccc(O)c4O[C@H]2C(=O)CC[C@@]3(O)[C@H]1C5 [NALOXONE]				0.08
Br.CCOC(=O)C1(c2cccc(O)c2)CCCN(CC2CC2)C1 (configuration not stated)	18.8		4	68
C=CCN1CCCC(C(=O)OCC)(c2ccc(O)cc2)C1.Cl (configuration not stated)	>307		10.4	> 307
CCCN1CCCC(C(=O)OCC)(c2cccc(O)c2)C1.O=P(O)(O)O (configuration not stated)	59.3		5.59	> 91
CN1CC[C@]23c4c5ccc(O)c4O[C@H]2[C@@H](O)C=C[C@H]3[C@H]1C5 [MORPHINE]			0.72	4.9
CCOC(=O)C1(c2ccc(O)cc2)CCCN(CC2CC2)C1.Cl (configuration not stated)	>294		4.65	100
CCCN1CCCC(C(=O)OCC)(c2ccc(O)cc2)C1.Cl (configuration not stated)	140		62.5	> 305
Br.CCOC(=O)C1(c2ccc(O)cc2)CCCN(C)C1 (configuration not stated)	>290		22.9	> 290
